# Source: EP4455292A1, “A METHOD FOR DETECTING ECTOINE” (Kaunas University of Technology, priority 2023, dated 2024)
# Columns and labels:
# [1] = system: ectoine-inducible system EutR/PeutB; experiment: E. coli-based ectoine biosensor (plasmid pEct-1), RFP reporter fluorescence response; assay type: cell-based
# Protocol: (§1) The fluorescence and cell absorbance were measured at multiple time points. Freshly grown bacterial cells were used to inoculate 2 mL of MM containing appropriate antibiotics in 50-mL centrifuge tubes, and cell cultures were grown overnight at 200 rpm and 30 °C. To obtain logarithmically growing cells, E. coli and P. putida overnight cultures were diluted to 0.05 OD600, respectively, in 5 mL of fresh medium with antibiotic. After the cells were grown to an OD600 of 0.15-0.2, culture aliquots of 142.5 µL were transferred into flat and clear bottom black 96-well plate (Corning Incorporated) and 7.5 µL of ectoine or hydroxyectoine was added to each culture to the required final concentration. Absorbance and fluorescence of cultures were measured using an Infinite Nano+ microplate reader (Tecan). Multiple time point measurements were taken every 10 min over the course of 15-20 hours with a plate reader measuring RFP fluorescence at excitation and emission wavelengths set to 585 nm and 620 nm, respectively, and absorbance at 600 nm. Obtained fluorescence and absorbance values were corrected by subtracting the autofluorescence and absorbance of the culture medium. The absolute normalized fluorescence was determined dividing the fluorescence value by corresponding absorbance value.
# The dose-response of biosensors was determined by using single time-point values of fluorescence and absorbance, which were obtained from the multiple time-point measurements 4 h after supplementation of ectoine or hydroxyectoine at different concentrations ranging from 0 to 5 mM. For all assays, the cultures of E. coli and P. putida were prepared as described above, and 142.5 µL of logarithmically growing cells, supplemented with 7.5 µL of ectoine or hydroxyectoine, were cultured in 96-well plate. The fluorescence and absorbance were measured using the same conditions and plate reader as indicated above.
# The plasmid pEct-1 was used to characterize biosensor's response to exogenously added ectoine. Experiments were performed to determine the kinetics of induction establishing the time that is required for the system to respond to a change in the ectoine and the dose response of the system. To evaluate biosensor's response to the ectoine, the fluorescence output was quantified.
# First, the time course experiments were performed in E. coli and P. putida. Accordingly, cells of both microorganisms harbouring the plasmid pEct-1, were cultivated in minimal medium (MM) at 200 rpm and 30° C (E. coli: Cm 50 mg/L; P. putida: Tet 12.5 mg/L), in the presence and absence of 1 mM ectoine; their optical density (OD600) and RFP fluorescence were monitored over time (Figure 3). In both microorganisms, the RFP expression above the level of the uninduced culture started with 60-90 minutes delay after addition of ectoine (Figure 3 and Figure 4) supporting the notion that the ectoine's catabolic product, the alpha-ADABA, as identified previously [Schultz et al (2017) Environ. Microbiol. 19(11), 4599-4619; Hermann et al (2021) Front. Microbiol. 12, 764731] is the effector that activates gene expression in P. putida. The fluorescence continued to increase throughout the course of 20-hour time course experiment. Importantly, the uninduced baseline (no ectoine) remained at 0 fluorescence units. […] Such "non-leaky" system helps improving the quantification accuracy of reporter fluorescence, but also can be used to control the gene expression that can be harmful or even toxic to a cell. […]
# [2] = system: ectoine-inducible system EutR/PeutB; experiment: P. putida-based ectoine biosensor (plasmid pEct-1), RFP reporter fluorescence response; assay type: cell-based
# Protocol: as §1
# The dose-response of biosensors was determined by using single time-point values of fluorescence and absorbance, […] ranging from 0 to 5 mM. […] The fluorescence and absorbance were measured using the same conditions and plate reader as indicated above.
# The plasmid pEct-1 was used to characterize biosensor's response to exogenously added ectoine. […] To evaluate biosensor's response to the ectoine, the fluorescence output was quantified.
# First, the time course experiments were performed in E. coli and P. putida. […] The fluorescence continued to increase throughout the course of 20-hour time course experiment. Importantly, the uninduced baseline (no ectoine) remained at 0 fluorescence units. […]
# [3] = system: AraC-PBAD; conditions: prior-art AraC-PBAD sensor, E. coli; cited from earlier work
# [4] = E. coli, MM, 10 hours after supplementation, text does not separate the two hosts
# [5] = MM, 10 hours after supplementation, text does not separate the two hosts
smiles,measurement,setting,value
"CC1=NC(C(=O)O)CCN1 (stereo not drawn) [ectoine, 1,4,5,6-tetrahydro-2-methyl-4-pyrimidinecarboxylic acid]",delay of RFP expression above the level of the uninduced culture after addition of ectoine,"[1]; 1 mM ectoine, MM, 30° C, E. coli",60 to 90 min
same,fold lower minimal ectoine concentration needed for observable induction (applicant's sensor vs AraC-PBAD sensor),[1]; E. coli expression organism,around 1000 fold
same,limit of detection,[1]; [4],below 1 µM
same,range of linear fluorescence response to exogenously present ectoine,[1]; [4],1 to 20 µM
same,minimal effective concentration,"[1]; Escherichia coli, applicant's sensor, E. coli expression organism, read-out: minimal ectoine concentration needed for observable induction",1 µM
same,delay of RFP expression above the level of the uninduced culture after addition of ectoine,"[2]; 1 mM ectoine, 30° C",60 to 90 min
same,limit of detection,[2]; [5],below 1 µM
same,range of linear fluorescence response to exogenously present ectoine,[2]; [5],1 to 20 µM
same,minimal ectoine concentration needed for observable induction,[3],around 10 mM
